Where two headings read alike, the source gives them in different places. Starred links: 1 amine or outer side, 2 acyl side, 3 side chain; linkers in the order of their positions; H or OH if unused. Positions of bridges follow the written chain, without caps; N, C: chain ends. Residues, ends and D or L forms follow the SMILES beside them. X6 = C(=C\C[*:2])/C[*:1]; X4 = C(CCC[*:2])CC[*:1]; X1 = C(C[*:1])C[*:2]
What was measured:
circular dichroism = conditions: deionized water; pH unbuffered; 20 °C; 25 uM
Caki-1 cells = assay type: cell-based, human
Experimental: All of the cells were grown adherently.
Antiproliferative assays. […] For the following 72h, every 24 h the cell culture media was changed and fresh media containing the compounds was added, 1% DMSO was used as control. After 72h of treatment, both floating and attached cells were collected and analyzed.

Plasma stability test = assay type: in vitro ADME; conditions: human plasma, 37° C.
Experimental: 1 mM stock solution of the corresponded peptide was prepared in PBS buffer (pH 7.4). Next, 50 μL from […] this solution were added to 1 mL of human plasma (Sigma-Aldrich, P9523). The mixture was incubated at 37° C. with mechanical shaking at 300 rpm. Aliquots were withdrawn in portions of 150 μL at different time points for analysis and mixed with 60 μL ACN/EtOH (1:1 v/v) for plasma protein precipitation. After centrifugation at 12000 rpm for 5 min, the supernatant was collected and analyzed by HPLC and HPLC-MS.

FIG. 2D = test: FIG. 2D
Description: Table printed on a drawing sheet, FIG. 2D
(§1) The patent's description of the figure: FIG. 2A depicts the results of biochemical assays showing structure of the synthesized stapled peptides, and their correspondent helicity and IC50 values for inhibition of H3K27 trimethylation in vitro, as determined by a histone methyltransferase colorimetric assay optimized using endogenous PRC2 extracted from a human clear cell renal carcinoma cell line (Caki-1);
(§2) FIG. 2B depicts a CD spectra of stapled peptides and their linear counterparts measured in water at 20° C.;
FIG. 2C illustrates a plot of H3K27 trimethylation inhibition using the enzymatic in vitro assay described in FIG. 2A, with varying concentrations of 2 (GN-ZB2), positive control GSK126, and using an equimolar combination of both compounds to test their synergistic effects. A summary of the IC50 values for inhibition of H3K27me3 determined from the experiments is also presented. […]
(§3) FIG. 2D show both Chymotrypsin-based proteolytic degradation as well as the plasma assay show remarkable stability of the disclosed i, i+4 and i, i+7 12 bisthioether stapled peptides. The rate of peptide proteolysis was monitored by HPLC and HPLC-MS analysis.
First reader's note: The Assay column joins the peptide number (label) with the matrix (chymotrypsin or plasma, condition); units stand in the cells.

FIG. 5A = test: FIG. 5A
Experimental: (§4) Table printed on a drawing sheet, FIG. 5A
(§5) FIG. 5C is a CD spectra of stapled peptides and their linear counterparts measured in water at 20° C.;
(§6) FIG. 5E is a plot of H3K27me3 inhibition obtained in an enzymatic assay using endogenous PRC2 extracted from Caki-1 cells and recombinant PRC2 complex (for compound 11);
First reader's note: Half-life units (min or h) stand in the cells; the compound structures are in the upper table of FIG. 5A.

[1] = system: endogenous PRC2 extracted from a human clear cell renal carcinoma cell line (Caki-1); test: H3K27Me3 Inhibition (% at 1 mM)
Experimental: as §4
Head of the field: H3K27Me3 Inhibition (% at 1 mM)
as §5, §6
First copying reader's note: Half-life units (min or h) stand in the cells; the compound structures are in the upper table of FIG. 5A.
Where the first naming reader finds the target: passage: using as catalytic complex endogenous PRC2 extracted from a human clear cell renal carcinoma cell line (Caki-1)

[2] = system: endogenous PRC2 extracted from a human clear cell renal carcinoma cell line (Caki-1); test: IC50 (uM)
Description: Table printed on a drawing sheet, FIG. 2A
Head of the field: IC50 (uM)
as §1, §2
FIG. 2C illustrates a plot of H3K27 trimethylation inhibition using the enzymatic in vitro assay described in FIG. 2A, with varying concentrations of 2 (GN-ZB2), positive control GSK126, and using an equimolar combination of both compounds to test their synergistic effects. A summary of the IC50 values for inhibition of H3K27me3 determined from the experiments is also presented. Calculation of the combination index using the equation described by Chou et al. indicated a marked synergistic effect (CI=0.53) of 2 (GN-ZB2) and GSK126;
as §3
First copying reader's note: IC50 cells hold the value and its ± error together.
Where the first naming reader finds the target: description_of_the_figure: histone methyltransferase colorimetric assay optimized using endogenous PRC2 extracted from a human clear cell renal carcinoma cell line (Caki-1)

[3] = biological target: T1, α-chymotrypsin from bovine pancreas type II (Bos taurus, UniProt P00766); test: Chymotrypsin stability test; assay type: in vitro ADME
T1 construct: freshly prepared α-chymotrypsin from bovine pancreas type II, ≥40 U/mg; purchased; host or cells: bovine pancreas
Experimental: Assays were performed using freshly prepared α-chymotrypsin from bovine pancreas type II, ≥40 U/mg. The enzyme was initially reconstituted in HCl […] (1 μg/μL), and kept in ice until used. Peptides stock solutions were prepared in assay buffer (50 mM Tris.HCl pH=8.0, 560 μM calcium chloride, 0.1% Tween-20) containing <3% of DMSO. The reactions were performed at a 200 μL scale, in assay buffer, at final concentrations of 50 μM for peptide and […] for α-chymotrypsin (10 μL from the reconstitution solution). The mixture was incubated at 37° C. and aliquots were withdrawn in portions of 25 μL at different time points for analysis. The removed aliquots were mixed with 25 μL of water 1% TFA, and then treated with a column for detergent removal following the manufacturer's protocol (Pierce, Catalog #:87776). The rate of peptide proteolysis was monitored by HPLC and HPLC-MS analysis. Control experiments were carried out under the same conditions but using BSA instead of α-chymotrypsin.

Q: Which helicity (circular dichroism) does the source give for `CC[C@H](C)[C@@H]1NC(=O)[C@@H](NC(=O)[C@H](Cc2ccc(O)cc2)NC(=O)[C@H](CCC(=O)O)NC(=O)[C@H](CCC(=O)O)NC(=O)[C@H](CC(N)=O)NC(=O)[C@@H](NC(=O)[C@@H](NC(C)=O)C(C)C)[C@@H](C)CC)CSCCCCCCSC[C@@H](C(=O)N[C@@H](CC(N)=O)C(=O)N[C@H](C(=O)N2CCC[C@H]2C(=O)N[C@@H](Cc2ccccc2)C(=O)N[C@@H](CC(C)C)C(N)=O)[C@@H](C)O)NC(=O)[C@H](CCCCN)NC(=O)[C@H](Cc2c[nH]c3ccccc23)NC1=O` (Ac-VINEEYCIWKCNTPFL-NH2; linker 7-11 via X4) here?
A: 19.4%

Q: With `CC[C@H](C)[C@@H]1NC(=O)[C@@H](NC(=O)[C@H](Cc2ccc(O)cc2)NC(=O)[C@H](CCC(=O)O)NC(=O)[C@H](CCC(=O)O)NC(=O)[C@H](CC(N)=O)NC(=O)[C@@H](NC(=O)[C@@H](NC(C)=O)C(C)C)[C@@H](C)CC)CSC/C=C/CSC[C@@H](C(=O)N[C@@H](CC(N)=O)C(=O)N[C@H](C(=O)N2CCC[C@H]2C(=O)N[C@@H](Cc2ccccc2)C(=O)N[C@@H](CC(C)C)C(N)=O)[C@@H](C)O)NC(=O)[C@H](CCCCN)NC(=O)[C@H](Cc2c[nH]c3ccccc23)NC1=O` (Ac-VINEEYCIWKCNTPFL-NH2; linker 7-11 via X6) as the molecule, how does the helicity (circular dichroism) read?
A: 24.2%

Q: For `CC[C@H](C)[C@@H]1NC(=O)[C@@H](NC(=O)[C@H](CC(=O)O)NC(=O)[C@@H](NC(=O)[C@@H](NC(C)=O)[C@@H](C)O)C(C)C)CSCCCSC[C@@H](C(=O)N[C@@H](CC(C)C)C(=O)N[C@@H](CO)C(=O)N[C@H](C(=O)N[C@@H](CC(C)C)C(=O)N[C@@H](C)C(=O)N[C@@H](CCC(=O)O)C(=O)N[C@@H](CCC(=O)O)C(=O)N[C@H](C(=O)N2CCC[C@H]2C(=O)N[C@@H](CCC(N)=O)C(=O)N[C@@H](CC(N)=O)C(N)=O)C(C)C)C(C)C)NC(=O)[C@H](CO)NC(=O)[C@H](C)NC1=O` [2 (GN-ZB2), TVD[CIASC](CH2)3LSVLAEEVPQN] (Ac-TVDCIASCLSVLAEEVPQN-NH2; linker 4-8 via X1; C-terminus assumed), which IC50 (Caki-1 cells; 72 h) is on record?
A: 0.25 ± 0.03 µM

Q: And the “stability in plasma” value (Plasma stability test)?
A: high resistance to proteolysis

Q: Which “Half Life” value (FIG. 2D) does the source give for `CC[C@H](C)[C@@H]1NC(=O)[C@@H](NC(=O)[C@H](CC(=O)O)NC(=O)[C@@H](NC(=O)[C@@H](NC(C)=O)[C@@H](C)O)C(C)C)CSCCCSC[C@@H](C(=O)N[C@@H](CC(C)C)C(=O)N[C@@H](CO)C(=O)N[C@H](C(=O)N[C@@H](CC(C)C)C(=O)N[C@@H](C)C(=O)N[C@@H](CCC(=O)O)C(=O)N[C@@H](CCC(=O)O)C(=O)N[C@H](C(=O)N2CCC[C@H]2C(=O)N[C@@H](CCC(N)=O)C(=O)N[C@@H](CC(N)=O)C(N)=O)C(C)C)C(C)C)NC(=O)[C@H](CO)NC(=O)[C@H](C)NC1=O` [2 Chymotrypsin] (Ac-TVDCIASCLSVLAEEVPQN-NH2; linker 4-8 via X1) here?
A: 40.9 h

Q: For `CC[C@H](C)[C@@H]1NC(=O)[C@@H](NC(=O)[C@H](CC(=O)O)NC(=O)[C@@H](NC(=O)[C@@H](NC(C)=O)[C@@H](C)O)C(C)C)CSCCCSC[C@@H](C(=O)N[C@@H](CC(C)C)C(=O)N[C@@H](CO)C(=O)N[C@H](C(=O)N[C@@H](CC(C)C)C(=O)N[C@@H](C)C(=O)N[C@@H](CCC(=O)O)C(=O)N[C@@H](CCC(=O)O)C(=O)N[C@H](C(=O)N2CCC[C@H]2C(=O)N[C@@H](CCC(N)=O)C(=O)N[C@@H](CC(N)=O)C(N)=O)C(C)C)C(C)C)NC(=O)[C@H](CO)NC(=O)[C@H](C)NC1=O` [2 Plasma] (Ac-TVDCIASCLSVLAEEVPQN-NH2; linker 4-8 via X1), which “Half Life” value (FIG. 2D) is on record?
A: 20.6 h

Q: Which “Proteolytic Stability (Chymotripsin, t1/2)” value (FIG. 5A) does the source give for `CC[C@H](C)[C@H](NC(=O)[C@H](CC(C)C)NC(=O)[C@H](Cc1ccccc1)NC(=O)[C@H](CC(=O)O)NC(=O)[C@H](Cc1c[nH]cn1)NC(=O)[C@H](CCSC)NC(=O)[C@H](CO)NC(=O)[C@@H](NC(=O)[C@@H]1CSCCCSC[C@H](NC(=O)[C@H](CC(N)=O)NC(=O)[C@H](CCCNC(=N)N)NC(=O)[C@H](CS)NC(=O)[C@H](CC(C)C)NC(C)=O)C(=O)N[C@@H](CCSC)C(=O)N[C@@H](CC(C)C)C(=O)N[C@@H](Cc2c[nH]cn2)C(=O)N1)C(C)C)C(N)=O` [11 (GN-ZW11), LCRN[CMLHC](CH2)3VSMHDFLI] (Ac-LCRNCMLHCVSMHDFLI-NH2; linker 5-9 via X1) here?
A: 14.4 h

Q: What about the “Proteolytic Stability (Plasma, t1/2)” value (FIG. 5A) of the same molecule?
A: 7.3 h

Q: And the helicity (circular dichroism)?
A: 95.1%

Q: And the “H3K27Me3 Inhibition (% at 1 mM)” value [1]?
A: 98.3 % at 1 mM

Q: With `CC[C@H](C)n1cc(C)c2c(C(=O)NCc3c(C)cc(C)[nH]c3=O)cc(-c3ccc(N4CCNCC4)nc3)cc21` [GSK126] as the molecule, how does the IC50 (Caki-1 cells; Caki-1 cells, 72h daily treatment, colorimetric method, read-out: IC50 cell proliferation) read?
A: 0.15 ± 0.06 µM

Q: And the “effect on cell proliferation” value (Caki-1 cells; Caki-1 cells, 72h of daily treatment)?
A: significantly inhibits cell proliferation

Q: Which helicity (circular dichroism) does the source give for Ac-EWLREKTITQIEEF-NH2 here?
A: 20.9%

Q: With Ac-LCRNFMLHLVSMHDFLI-NH2 as the molecule, how does the helicity (circular dichroism) read?
A: 59.9%

Q: Which IC50 [2] does the source give for “Ac-TVDKIASA[CSVLAEEC]PQN-CONH2 CH2(CH2)4CH2 (TVDKIASACSVLAEECPQN; N-acetyl, C-amide, hexylene bisthioether staple; Synthetic bisthioether stapled peptide; compound 4; THIOETH (9)..(16) (CH2)6 linker between residues 9 and 16) [4 | SEQ ID NO: 6]” here?
A: 10.1 ± 1.1 µM

Q: With “Ac-TVDKIASA[CSVLAEEC]PQN-CONH2 CH2(CH2)5CH2 (TVDKIASACSVLAEECPQN; N-acetyl, C-amide, heptylene bisthioether staple; Synthetic bisthioether stapled peptide; Compound 5; THIOETH (9)..(16) (CH2)7 linker between residues 9 and 16) [5 | SEQ ID NO: 7]” as the molecule, how does the IC50 [2] read?
A: 27.1 ± 1.2 µM

Q: Which IC50 [2] does the source give for “Ac-TVDKIASA[CSVLAEEC]PQN-CONH2 CH2(CH2)6CH2 (TVDKIASACSVLAEECPQN; N-acetyl, C-amide, octylene bisthioether staple; Synthetic bisthioether stapled peptide; Compound 6; THIOETH (9)..(16) (CH2)8 linker between residues 9 and 16) [6 | SEQ ID NO: 8]” here?
A: 17 ± 1.4 µM

Q: With “Ac-VINEEYKIWKKNTPFL-NH2 [compound 13, reference compound]” as the molecule, how does the “time to full degradation by chymotrypsin” value [3] read?
A: half an hour

Q: What about the half-life ([3]; bovine, read-out: t1/2 chymotrypsin stability assay (converted)) of the same molecule?
A: 0.5 h

Q: What about the helicity (circular dichroism) of the same molecule?
A: 16.4%

— patent US11345725B2, “Bis-thioether stapled peptides as inhibitors of PRC2 function” (Research Foundation of the City University of New York, priority 2019, dated 2022)
